Measured values as given in patent publication US20050215544A1, “Methods of treating HIV infection” (priority 2004, published 2005).

Assays:
HIV-1 LAI [1] = test: Two-drug combination antiviral assay with Compound 1 (combination indices, Chou and Rideout); type: cell-based; details: combination with Compound 1; for Overall Result of two-drug combination: all ratios and inhibition levels; for Combination Indices at 50% HIV Inhibition (Confidence Interval) / Combination Indices at 75% HIV Inhibition (Confidence Interval) / Combination Indices at 90% HIV Inhibition (Confidence Interval): 95% CI in parenthesis
Procedure: (§1) Virus and cell lines. The T-cell lines, MT-2 and PM-1 were obtained through the AIDS Research and Reference Reagent Program, NIAID, and were contributed by Dr. D. Richman and Dr. R. Gallo, respectively. Both cell lines were cultured in RPMI 1640 medium supplemented with 10% fetal bovine serum, 2 mM L-glutamine and sub-cultured twice a week. The LAI strain of HIV-1 was obtained from the Fred Hutchinson Cancer Research Center, and the Bal strain was from NIH. Both virus stocks were amplified and titered in MT-2 cells (LAI) and PM-1 cells (Bal) using a virus infectivity assay.
(§2) Drug Susceptibility and Cytotoxicity Assays. For drug susceptibility assays, MT-2 cells were infected with HIV-1 LAI (or PM-1 cells with HIV-1 Bal) at an MOI of 0.005, and seeded into 96-well microtiter plates ([…] cells/ml) containing serial dilutions of test compounds. […] Each drug ratio consisted of an array of 3-fold serial dilutions, and was performed in quadruplicate. The plates were incubated at 37° C./5% CO2. The MT-2 cells infected with HIV-1 LAI were incubated for 5 days. On day-five post-infection, 20 μl from each well was harvested and quantitated by a reverse transcriptase (RT) assay, or in samples involving non-nucleoside RT inhibitors, an MTS assay. The PM-1 cells infected with HIV-1 Bal and used for studying the combinations with CCR5 inhibitors were incubated for six days. On day-six post-infection, 20 μl from each well was harvested, 20- and 50-fold diluted and quantitated by p24 assay. Cytotoxicity assays were performed using uninfected cells, exposed to the same drug combinations, and incubated for six days. Cell viability was determined by an MTS assay. The CC50 values were calculated by using the exponential form of the median effect equation as mentioned below for calculation of EC50.
Analysis of Drug Combination Effects. For determination of CI values, drugs were diluted in a fixed ratio and multiple ratios were analyzed. The drug serial dilutions spanned a range of concentrations near the EC50 value of each compound, so that equivalent antiviral activities could be compared. Concentration-response curves were estimated for each individual drug and every combination using the median-effect equation. The equation was fit using a nonlinear regression routine (Proc Nlin) in PC SAS version 8.01 (SAS Institute Inc., SAS Version 8.01, Cary, NC: SAS Institute Inc., 1990).
(§3) In this equation, Fa stands for “fraction affected,” and represents the fraction of the viral load that has been inactivated. […] ED50 is drug concentration that is expected to reduce the amount of virus by 50%, and m is a parameter that reflects the slope of the concentration-response curve.
To assess antiviral effects of different drug combination treatments, combination indices (CIs) were calculated according to Chou and Rideout. The combination index was computed as CI=[D]1/[Dm]1+[D]2/[Dm]2
In this equation [Dm]1 and [Dm]2 are the concentrations of drugs that would individually produce a specific level of effect, while [D]1 and [D]2 are the concentrations of drugs in combination that would produce the same level of effect.
Theoretically, additivity is implied if the CI is equal to one, synergy if the CI is less than one, and antagonism if the CI is greater than one. […] At best, we can construct a range that contains the likely values for the CI, given the noise in the data. In this report, these ranges are reported in parentheses next to each point estimate of the CI. […] If the range fell entirely above 1.0, we would infer antagonistic behavior. If the range were to include 1.0, we would infer additivity.

HIV-1 LAI [2] = test: microbe, parasite or virus in culture; details: Human immunodeficiency virus 1, MT2, 120 h
Procedure: as §1, §2, §3
In carrying out the combination experiments below, the EC50 for Compound 1 and each comparator compound was determined during the course of each study, and used in the subsequent data analysis.

[3] = EC50 ratio 1:1 (Compound 1 to comparator)
[4] = EC50 ratio 1:2.5 (Compound 1 to comparator)
[5] = EC50 ratio 2.5:1 (Compound 1 to comparator)

SMILES	Overall Result of two-drug combination (HIV-1 LAI [1])	EC50 (HIV-1 LAI [2]) [nM]	Combination Indices at 50% HIV Inhibition (Confidence Interval) (HIV-1 LAI [1]; [3])	Combination Indices at 75% HIV Inhibition (Confidence Interval) (HIV-1 LAI [1]; [3])	Combination Indices at 90% HIV Inhibition (Confidence Interval) (HIV-1 LAI [1]; [3])	Combination Indices at 50% HIV Inhibition (Confidence Interval) (HIV-1 LAI [1]; [4])	Combination Indices at 75% HIV Inhibition (Confidence Interval) (HIV-1 LAI [1]; [4])	Combination Indices at 90% HIV Inhibition (Confidence Interval) (HIV-1 LAI [1]; [4])	Combination Indices at 50% HIV Inhibition (Confidence Interval) (HIV-1 LAI [1]; [5])	Combination Indices at 75% HIV Inhibition (Confidence Interval) (HIV-1 LAI [1]; [5])	Combination Indices at 90% HIV Inhibition (Confidence Interval) (HIV-1 LAI [1]; [5])	Overall Result of two-drug combination (HIV-1 LAI [1]; listed as nevirapine)
O=C(C(=O)N1CCN(C(=O)c2ccccc2)CC1)c1c[nH]c2c(-n3ccnn3)ncc(F)c12 [Compound 1, 1-Benzoyl-4-[2-[4-fluoro-7-(1H-1,2,3-triazol-1-yl)-1H-pyrrolo[2,3-c]pyridin-3-yl]-1,2-dioxoethyl]-piperazine]	synergistic or additive-synergistic	0.1 to 0.3	–	–	–	–	–	–	–	–	–	–
Cc1ccnc2c1NC(=O)c1cccnc1N2C1CC1 [Nevirapine]	Additive-	127	0.13 (0.11, 0.16)	0.17 (0.13, 0.22)	0.24 (0.14, 0.33)	0.32 (0.23, 0.40)	0.72 (0.45, 0.99)	1.69 (0.63, 2.75)	0.37 (0.29, 0.44)	0.76 (0.54, 0.98)	1.60 (0.86, 2.34)	additive to synergistic
COC(=O)N[C@H](C(=O)N[C@@H](Cc1ccccc1)[C@@H](O)CN(Cc1ccc(-c2ccccn2)cc1)NC(=O)[C@@H](NC(=O)OC)C(C)(C)C)C(C)(C)C [Atazanavir]	Additive-	0.5	0.76 (0.64, 0.89)	0.89 (0.69, 1.10)	1.07 (0.68, 1.46)	0.28 (0.25, 0.31)	0.38 (0.33, 0.44)	0.54 (0.42, 0.66)	0.08 (0.07, 0.09)	0.14 (0.12, 0.17)	0.25 (0.18, 0.33)	–
CC(C)(C)NC(=O)[C@@H]1C[C@@H]2CCCC[C@@H]2CN1C[C@@H](O)[C@H](Cc1ccccc1)NC(=O)[C@H](CC(N)=O)NC(=O)c1ccc2ccccc2n1 [Saquinavir]	Additive-	4	0.50 (0.40, 0.61)	0.92 (0.64, 1.19)	1.71 (0.90, 2.51)	0.24 (0.21, 0.26)	0.32 (0.27, 0.36)	0.43 (0.33, 0.52)	0.14 (0.12, 0.16)	0.31 (0.25, 0.37)	0.68 (0.45, 0.92)	–
Cc1cccc(C)c1OCC(=O)N[C@@H](Cc1ccccc1)[C@@H](O)C[C@H](Cc1ccccc1)NC(=O)[C@H](C(C)C)N1CCCNC1=O [Lopinavir]	Additive-	5	0.68 (0.49, 0.87)	0.80 (0.48, 1.11)	0.95 (0.36, 1.55)	0.74 (0.57, 0.92)	0.56 (0.37, 0.74)	0.42 (0.21, 0.64)	0.65 (0.44, 0.86)	0.77 (0.43, 1.11)	0.92 (0.28, 1.57)	–
Nc1ccn([C@@H]2CS[C@H](CO)O2)c(=O)n1 [Lamivudine]	–	30	0.57 (0.41, 0.73)	0.73 (0.44, 1.02)	1.00 (0.37, 1.62)	0.17 (0.13, 0.21)	0.33 (0.23, 0.43)	0.70 (0.33, 1.06)	0.18 (0.13, 0.22)	0.38 (0.26, 0.49)	0.85 (0.40, 1.29)	–
Nc1nc(NC2CC2)c2ncn([C@H]3C=C[C@@H](CO)C3)c2n1 [Abacavir]	Additive-	528	0.18 (0.13, 0.23)	0.47 (0.30, 0.64)	1.23 (0.52, 1.94)	0.34 (0.27, 0.41)	0.64 (0.45, 0.83)	1.22 (0.65, 1.79)	0.23 (0.19, 0.28)	0.42 (0.30, 0.53)	0.75 (0.42, 1.07)	–
Cc1cn([C@H]2C[C@H](N=[N+]=[N-])[C@@H](CO)O2)c(=O)[nH]c1=O [Zidovudine]	Synergistic	–	0.30 (0.17, 0.42)	0.48 (0.20, 0.76)	0.78 (0.05, 1.51)	0.20 (0.16, 0.25)	0.30 (0.21, 0.40)	0.45 (0.22, 0.68)	0.04 (0.03, 0.04)	0.04 (0.03, 0.05)	0.04 (0.03, 0.05)	–
